In PMC11859419, “New UB006 Derivatives With Higher Solubility and Cytotoxic Activity in Ovarian Cancer Cells” (Pharmaceuticals, 2025):
Values after ≈ are worked out from the molar mass of the structure shown. Like-named read-outs stand apart in the source and are kept apart here.

What was measured:
OVCAR-3 cell line = experiment: MTT cytotoxicity assay in OVCAR-3 ovarian cancer cells; type: cell-based, human; details: for IC50: Homo sapiens, OVCAR-3, 72 h incubation, MTT, mean ± SEM of three experiments; for Fold increase in cytotoxicity compared with (±)-UB006: OVCAR-3, ratio of IC50 values
Protocol: OVCAR-3 (human ovary carcinoma, ATC HTB-161, passage number 20) cells were cultured at 37 °C in a humidified atmosphere of 5% CO2 in Dulbecco’s Modified Eagle Medium containing 4.5 g/L of glucose and supplemented with glutamine, 10% heat-inactivated fetal bovine serum, 100 units/mL of penicillin, and […] of streptomycin. The culture was passaged twice a week through gentle trypsinization. Cells were seeded in 10 cm culture dishes and grown to confluence. An MTT cytotoxicity assay was performed to evaluate the cytotoxic effect of the compounds. A total of 2 × 10^3 cells/well were plated in 96-well plates in […] of culture medium. After 24 h, the medium was removed, and cells were incubated for 72 h in fresh medium with different concentrations (0.5–20 µM) of the different compounds. DMSO was used as a blank at a final concentration of 0.5%. The cells were then incubated for 3 h with […] of fresh medium and […] of MTT dissolved in phosphate-buffered saline to a final concentration of 5 mg/mL. Following treatment, the supernatants were carefully removed, and the MTT–formazan crystals were solubilized by adding […] of DMSO. The absorbance was measured at 570 nm.
Samples were incubated for 3 days with increasing concentrations of the different compounds, followed by an MTT assay to quantify cell survival.

FAS [1] = target: T1, FAS (Rattus norvegicus, UniProt P12785); experiment: Spectrophotometric FAS activity assay in rat liver extracts; type: biochemical; details: rat liver extracts (210 µg), preincubated 30 min at 30 °C, mean ± SEM of three experiments
T1 construct: Cytosolic hepatic extracts obtained from rat (210 µg) were preincubated at 30 °C for 30 min; from tissue; host or cells: rat liver (cytosolic, FAS-enriched hepatic extract)
T1 sequence (P12785 whole entry): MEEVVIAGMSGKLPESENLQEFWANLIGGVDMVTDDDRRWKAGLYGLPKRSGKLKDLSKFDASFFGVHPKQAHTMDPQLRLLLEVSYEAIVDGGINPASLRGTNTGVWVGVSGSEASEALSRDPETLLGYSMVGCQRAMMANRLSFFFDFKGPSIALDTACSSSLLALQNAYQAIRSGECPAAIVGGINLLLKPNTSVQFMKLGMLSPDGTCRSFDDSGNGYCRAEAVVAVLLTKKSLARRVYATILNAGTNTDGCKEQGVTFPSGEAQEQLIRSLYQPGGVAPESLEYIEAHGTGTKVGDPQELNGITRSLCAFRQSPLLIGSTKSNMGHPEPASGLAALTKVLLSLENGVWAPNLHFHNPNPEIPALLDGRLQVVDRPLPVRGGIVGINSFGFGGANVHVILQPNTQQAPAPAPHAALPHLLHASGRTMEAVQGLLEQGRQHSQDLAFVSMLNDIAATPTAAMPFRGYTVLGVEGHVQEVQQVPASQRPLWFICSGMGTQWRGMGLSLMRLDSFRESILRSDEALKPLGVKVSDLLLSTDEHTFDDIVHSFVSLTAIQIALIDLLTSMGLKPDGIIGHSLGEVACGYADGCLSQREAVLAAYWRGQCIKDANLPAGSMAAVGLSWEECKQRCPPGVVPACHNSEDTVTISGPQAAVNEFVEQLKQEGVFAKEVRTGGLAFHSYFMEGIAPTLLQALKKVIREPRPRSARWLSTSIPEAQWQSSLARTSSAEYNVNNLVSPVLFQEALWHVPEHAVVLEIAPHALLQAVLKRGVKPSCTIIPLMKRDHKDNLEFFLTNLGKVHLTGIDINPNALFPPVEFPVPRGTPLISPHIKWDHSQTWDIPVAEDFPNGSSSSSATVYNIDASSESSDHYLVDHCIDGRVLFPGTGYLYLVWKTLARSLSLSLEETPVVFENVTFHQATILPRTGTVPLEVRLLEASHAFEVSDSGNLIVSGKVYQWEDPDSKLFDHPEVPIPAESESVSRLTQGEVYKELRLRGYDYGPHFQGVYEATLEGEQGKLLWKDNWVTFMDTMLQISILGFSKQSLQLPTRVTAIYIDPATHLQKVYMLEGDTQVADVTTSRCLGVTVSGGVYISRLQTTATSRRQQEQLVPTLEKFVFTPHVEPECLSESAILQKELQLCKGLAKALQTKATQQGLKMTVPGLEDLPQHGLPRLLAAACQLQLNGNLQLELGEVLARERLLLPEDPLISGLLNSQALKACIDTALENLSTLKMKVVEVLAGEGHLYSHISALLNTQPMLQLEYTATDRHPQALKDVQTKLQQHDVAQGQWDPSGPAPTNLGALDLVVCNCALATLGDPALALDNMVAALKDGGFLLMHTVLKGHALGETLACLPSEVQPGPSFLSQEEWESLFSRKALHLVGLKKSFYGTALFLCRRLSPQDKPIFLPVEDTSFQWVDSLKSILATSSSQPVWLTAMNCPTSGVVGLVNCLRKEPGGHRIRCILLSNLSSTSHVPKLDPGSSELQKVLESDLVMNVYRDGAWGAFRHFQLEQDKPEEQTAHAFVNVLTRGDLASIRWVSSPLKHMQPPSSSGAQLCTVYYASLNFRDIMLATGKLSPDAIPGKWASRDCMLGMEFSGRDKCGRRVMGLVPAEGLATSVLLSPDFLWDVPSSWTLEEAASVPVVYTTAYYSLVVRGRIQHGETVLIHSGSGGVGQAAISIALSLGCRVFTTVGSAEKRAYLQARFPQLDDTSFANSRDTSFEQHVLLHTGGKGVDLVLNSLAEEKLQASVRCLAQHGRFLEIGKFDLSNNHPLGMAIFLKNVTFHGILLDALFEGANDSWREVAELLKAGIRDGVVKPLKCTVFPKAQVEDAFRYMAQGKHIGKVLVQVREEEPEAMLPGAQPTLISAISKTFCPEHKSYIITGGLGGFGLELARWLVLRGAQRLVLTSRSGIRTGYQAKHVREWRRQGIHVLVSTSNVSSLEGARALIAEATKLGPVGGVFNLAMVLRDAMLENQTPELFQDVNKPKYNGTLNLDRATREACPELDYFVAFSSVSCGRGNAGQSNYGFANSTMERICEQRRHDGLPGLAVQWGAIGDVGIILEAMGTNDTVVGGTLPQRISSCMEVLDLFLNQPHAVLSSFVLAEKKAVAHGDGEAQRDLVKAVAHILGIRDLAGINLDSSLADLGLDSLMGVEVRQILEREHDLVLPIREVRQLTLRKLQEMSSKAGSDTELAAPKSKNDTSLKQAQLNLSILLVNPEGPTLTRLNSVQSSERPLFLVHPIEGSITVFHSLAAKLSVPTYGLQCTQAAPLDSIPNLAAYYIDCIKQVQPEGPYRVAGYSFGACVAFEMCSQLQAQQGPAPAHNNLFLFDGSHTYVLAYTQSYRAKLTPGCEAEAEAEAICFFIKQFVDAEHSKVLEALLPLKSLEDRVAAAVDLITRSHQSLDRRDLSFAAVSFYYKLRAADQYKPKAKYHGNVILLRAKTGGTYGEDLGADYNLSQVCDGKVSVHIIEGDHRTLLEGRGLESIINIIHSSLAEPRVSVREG
Protocol: For in vitro experiments, FAS was purified from rat liver following the protocol previously described by Linn. FAS activity was measured using a spectrophotometric method, as previously described. […] NADPH (121 µM) and acetyl-CoA (61 µM) in potassium phosphate buffer (pH 7.2) were added to preincubated enzyme and equilibrated at 37 °C for 3 min. The reaction was initiated through the addition of malonyl-CoA (55 µM). The total reaction volume was 330 µL. Oxidation of NADPH was measured at 340 nm at 37 °C for 10 min.
Figure 3 FAS activity assay in rat liver extracts. Representation of % of remaining FAS activity of spectrophotometric activity assay.

[2] = Turbidimetry solubility assay; type: physicochemical; details: for solubility at 2 h: kinetic from dmso stock, 2 h at 37 °C, tested 25 μM–2 mM; for Solubility over tested concentrations: tested concentrations 25–2000 µM
Protocol: This effectively created two regression lines, with the intersection corresponding to the solubility of the compound.
The compounds were incubated for 2 h at 37 °C in a Thermoshaker (Biosan®, Riga, Latvia). Solubility was assessed through turbidimetry at 600 nm using Varioskan Lux® (Thermo Scientific®, Waltham, MA, USA). The approximate solubility was calculated by finding the intersection of the two regression lines formed before and after the curve tendency change due to precipitation of the compounds.

[3] = set-up: method as in earlier work; details: cited from earlier work
FAS [4] = target: T1, FAS; set-up: method as in PMID 23620264; details: previously described by the group; read-out: IC50 (FAS inhibition); cited from earlier work

C=C1C(=O)O[C@@H](CCCCCCCC)[C@H]1C(O)C(O)CO (mixture of isomers) [(±)-UB036, (4RS,5SR)-3-methylene-5-octyl-4-(1,2,3-trihydroxypropyl)dihydrofuran-2(3H)-one]
IC50 (OVCAR-3 cell line): 5.5 ± 0.8 µM | IC50 (FAS [1]): 458 ± 54 µM | solubility at 2 h ([2]; water with 1% DMSO): > 2000 µM | Solubility over tested concentrations [2]: soluble at all tested concentrations | Fold increase in solubility compared with (±)-UB006 ([2]; water with 1% DMSO): ≥ 4 fold

C=C1C(=O)O[C@@H](CCCCCCCC)[C@H]1[C@@H](O)CO (racemic) [(±)-UB035, (4RS,5SR)-4-((RS)-1,2-dihydroxyethyl)-3-methylene-5-octyldihydrofuran-2(3H)-one]
IC50 (OVCAR-3 cell line): 2.1 ± 0.2 µM | Fold increase in cytotoxicity compared with (±)-UB006 (OVCAR-3 cell line): 2.5 fold | IC50 (FAS [1]): 565 ± 62 µM | solubility at 2 h ([2]; water with 1% DMSO): > 2000 µM | Solubility over tested concentrations [2]: soluble at all tested concentrations

C=C1C(=O)O[C@@H](CCCCCCCC)[C@H]1C(O)CCCCCC (mixture of isomers) [(±)-UB033, (4RS,5SR)-4-(1-hydroxyheptyl)-3-methylene-5-octyldihydrofuran-2(3H)-one]
IC50 (OVCAR-3 cell line): 13.6 ± 1.3 µM | solubility at 2 h ([2]; water with 1% DMSO): 76 µM (≈ 24.7 µg/mL)

C=C1C(=O)O[C@@H](CCCCCCCC)[C@H]1C(C)O (mixture of isomers) [(±)-UB031, (4RS,5SR)-4-(1-hydroxyethyl)-3-methylene-5-octyldihydrofuran-2(3H)-one]
IC50 (OVCAR-3 cell line): 3.6 ± 0.2 µM | Fold increase in cytotoxicity compared with (±)-UB006 (OVCAR-3 cell line): 1.4 fold | solubility at 2 h ([2]; water with 1% DMSO): 473 µM (≈ 120 µg/mL)

C=C1C(=O)O[C@@H](CCCCCCCC)[C@@H]1CO (racemic) [(±)-UB006, (4SR,5SR)-4-(hydroxymethyl)-3-methylene-5-octyldihydrofuran-2(3H)-one]
solubility at 2 h ([2]; water with 1% DMSO): 550 µM (≈ 132 µg/mL)

C=CC(O)[C@H]1C(=C)C(=O)O[C@H]1CCCCCCCC (mixture of isomers) [(±)-UB034, (4RS,5SR)-4-(1-hydroxyallyl)-3-methylene-5-octyldihydrofuran-2(3H)-one]
IC50 (OVCAR-3 cell line): 12.3 ± 1.2 µM | solubility at 2 h ([2]; water with 1% DMSO): 88 µM (≈ 23.4 µg/mL)

C=C1C(=O)O[C@@H](CCCCCCCC)[C@@H]1C(=O)O (racemic) [(±)-C75]
Solubility in basic aqueous media ([3]; basic aqueous media): < 100 µg/mL | Solubility in water ([3]; water): insoluble in water | IC50 (FAS [4]): 460 ± 56 µM

C=C1C(=O)O[C@@H](CCCCCCCC)[C@H]1C(O)CC (mixture of isomers) [(±)-UB032, (4RS,5SR)-4-(1-hydroxypropyl)-3-methylene-5-octyldihydrofuran-2(3H)-one]
IC50 (OVCAR-3 cell line): 10.7 ± 0.9 µM | solubility at 2 h ([2]; water with 1% DMSO): 390 µM (≈ 105 µg/mL)
